{
  "source": "patent US20110046204A1",
  "about": "“Human Zip1, Zinc and Citrate for Prostate Cancer Screening” (University of Maryland, Balitmore, priority 2006, published 2011)",
  "origin": "cited, not measured here",
  "conditions": "zinc-indicator dye TSQ; read-out: affinity for zinc (Kd)",
  "data": [
    {"molecule": "COc1cc(NS(=O)(=O)c2ccc(C)cc2)c2ncccc2c1", "note": "[TSQ]", "values": [
      {"measurement": "Kd", "value": "~10", "unit": "nM"}
    ]}
  ]
}
